Experimental data published in article PMC6147075, “Discovery of novel fragments inhibiting O-acetylserine sulphhydrylase by combining scaffold hopping and ligand–based drug design” (Journal of Enzyme Inhibition and Medicinal Chemistry, 2018).
Like-named read-outs stand apart in the source and are kept apart here.

Tests used:
OASS-A = target: T1, OASS-A (Salmonella typhimurium, UniProt P0A1E3); assay: 96-well activity assay (cysteine-ninhydrin), OASS-A; type: biochemical, Salmonella enterica serovar Typhimurium; settings: bisulfide 600 µM, OAS at Km, two replicates
T1 construct: His6 (N, cleaved yes); made in house; host or cells: E. coli Rosetta (DE3)
T1 sequence (P0A1E3 whole entry): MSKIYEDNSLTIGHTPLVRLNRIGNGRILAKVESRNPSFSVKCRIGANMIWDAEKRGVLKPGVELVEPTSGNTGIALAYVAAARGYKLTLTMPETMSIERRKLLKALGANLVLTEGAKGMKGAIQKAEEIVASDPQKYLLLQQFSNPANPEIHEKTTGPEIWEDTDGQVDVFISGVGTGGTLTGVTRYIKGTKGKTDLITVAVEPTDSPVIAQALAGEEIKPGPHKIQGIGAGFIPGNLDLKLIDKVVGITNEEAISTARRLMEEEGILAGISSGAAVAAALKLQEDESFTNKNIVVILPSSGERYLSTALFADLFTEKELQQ
Method: (§1) The genes cysK and cysM encoding STOASS-A and STOASS-B, respectively, were subcloned from pET16b[34] to pET19m in order to replace the restriction site for Factor Xa with the one for TEV protease. pET19m-STcysK and pET19m-STcysM were transformed in E. coli Rosetta^TM (DE3) competent cells for protein expression. Protein expression and purification was performed following published protocols[34] with some modifications. Briefly, protein expression was induced on bacterial growth in exponential phase by IPTG for 4 and 5 h for OASS-B and OASS-A, respectively. Cells were lysed by pulsed sonication in 50 mM NaP, 300 mM NaCl, pH 7, with the addition of 1 mg/mL lysozyme. Purification was performed by immobilized metal affinity column (IMAC) on Co^2+ ions (Talon™, Clontech Laboratories, Inc., Mountain View, CA). Proteins were eluted with 250 mM (His6-OASS-A) or 600 mM (His6-OASS-B) imidazol. His-tag was removed from His6-OASS-A by treatment with TEV protease during O/N dialysis in 10 mM HEPES pH 8. His-tag was removed from His6-OASS-B by treatment with TEV protease in 20 mM HEPES, 100 mM NaCl, 1 mM TCEP pH 8 for 24 h at 5 °C. […] OASS-A was stored in 10 mM HEPES pH 8 and OASS-B in 20 mM HEPES, 100 mM NaCl, 1 mM TCEP pH 8.
(§2) The concentration of bisulfide was saturating (600 μM), whereas the concentration of OAS was set at Km to increase the sensitivity. The dissociation constant of selected compounds for StOASS-A and OASS-B was measured by a fluorimetric method published elsewhere[23]^,[24]. Briefly, a solution containing 1 µM StOASS-A in 100 mM Hepes pH 7 was titrated with increasing concentrations of compound at 20 °C. The fluorescence emission intensity of the PLP cofactor at 505 nm upon excitation at 412 nm was collected after each addition, subtracted by the blank and normalized by the protein dilution. The dependence of the emission intensity at 505 nm on the concentration of the compound was fitted to a binding isotherm[23] to calculate the dissociation constant of the protein-ligand complex.

OASS-B [1] = target: T2, OASS-B (Salmonella typhimurium, UniProt P29848); assay: 96-well activity assay (cysteine-ninhydrin), OASS-B; type: biochemical; settings: for % inhibition OASS-B: compound 1 µM, bisulfide 600 µM, OAS at Km, two replicates, ns = Not Significant; for inhibition at 1000 µM: read-out: % inhibition OASS-B
T2 construct: His6 (N, cleaved yes); made in house; host or cells: E. coli Rosetta (DE3)
T2 sequence (P29848 1-303): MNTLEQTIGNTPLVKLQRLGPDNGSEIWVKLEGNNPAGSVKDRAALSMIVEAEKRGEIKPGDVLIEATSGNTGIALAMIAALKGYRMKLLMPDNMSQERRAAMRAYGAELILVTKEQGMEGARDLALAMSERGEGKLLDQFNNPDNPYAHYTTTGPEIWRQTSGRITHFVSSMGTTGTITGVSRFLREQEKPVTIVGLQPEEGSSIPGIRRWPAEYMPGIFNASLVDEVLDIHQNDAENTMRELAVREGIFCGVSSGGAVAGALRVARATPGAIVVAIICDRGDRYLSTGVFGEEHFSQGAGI
Method: as §1, §2

StOASS-A = target: T3, StOASS-A (Salmonella typhimurium, UniProt P0A1E3); assay: Fluorimetric binding titration (PLP emission), StOASS-A; set-up: species or system Salmonella enterica serovar Typhimurium; settings: for Kd: 1 µM StOASS-A, 100 mM Hepes pH 7, 20 °C, read-out: Kd OASS-A; for LE (OASS-A): LE = (1.37/HA). pIC50, HA = heavy atoms
T3 construct: His6 (N, cleaved yes); made in house; host or cells: E. coli Rosetta (DE3)
T3 sequence (P0A1E3 whole entry): as the sequence (P0A1E3 whole entry) above
Method: as §1, §2

OASS-B [2] = target: T2, OASS-B; assay: biochemical; type: binding; settings: for LE (OASS-B): LE = (1.37/HA). pIC50, HA = heavy atoms
Method: as §1, §2

OASS = settings: cited from earlier work
[3] = system: cell envelope of Gram-negative bacteria; settings: not told
OASS-B [4] = target: T2, OASS-B; set-up: method as in PMID 26894308; settings: previously reported reference compound 2; cited from earlier work
Salmonella = assay: Activity against Salmonella in vitro; type: cell-based
[5] = compound 1 µM, ns = Not Significant
[6] = compound 1 mM, read-out: % inhibition OASS-A
[7] = read-out: % inhibition OASS-A, compound 1 mM

O=C(O)c1ccnn1C1CCCCC1 [Compound 4h, 1-cyclohexyl-1H-pyrazole-5-carboxylic acid]
% inhibition OASS-A (OASS-A; [5]): ns | inhibition at 1000 µM (OASS-A; [6]): 57 ± 1% | % inhibition OASS-B (OASS-B [1]): ns | inhibition at 1000 µM (OASS-B [1]): 30 ± 1%

O=C(O)c1ccnn1-c1ccc(F)cc1 [Compound 4g, 1–(4-fluorophenyl)-1H-pyrazole-5-carboxylic acid]
inhibition at 1 µM (OASS-A; [5]): 8 ± 1% | inhibition at 1000 µM (OASS-A; [6]): 95 ± 1% | inhibition at 1 µM (OASS-B [1]): 14 ± 2% | inhibition at 1000 µM (OASS-B [1]): 62 ± 1%

O=C(O)c1ccn(-c2ccc(F)cc2)n1 [Compound 5g, 1–(4-fluorophenyl)-1H-pyrazole-3-carboxylic acid]
% inhibition OASS-A (OASS-A; [5]): ns | inhibition at 1000 µM (OASS-A; [6]): 73 ± 1% | % inhibition OASS-B (OASS-B [1]): ns | inhibition at 1000 µM (OASS-B [1]): 36 ± 3%

O=C(O)c1ccnn1-c1ccccc1 [Compound 4b, 1-phenyl-1H-pyrazole-5-carboxylic acid]
% inhibition OASS-A (OASS-A; [5]): ns | inhibition at 1000 µM (OASS-A; [6]): 66 ± 1% | inhibition at 1 µM (OASS-B [1]): 11 ± 3% | inhibition at 1000 µM (OASS-B [1]): 65 ± 1%

O=C(O)c1ccc[nH]1 [Compound 14, 1H-pyrrole-2-carboxylic acid]
Kd (StOASS-A): 59 ± 11 µM | LE (OASS-A) (StOASS-A): 0.72 kcal/mol/HA | Kd (OASS-B [2]): 465 ± 50 µM | LE (OASS-B) (OASS-B [2]): 0.60 kcal/mol/HA

CC(C)(C)c1ccc(-n2ccc(C(=O)O)n2)cc1 [Compound 5f, 1–(4-(tert-butyl)phenyl)-1H-pyrazole-3-carboxylic acid]
% inhibition OASS-A (OASS-A; [5]): ns | inhibition at 1000 µM (OASS-A; [6]): 81 ± 1% | inhibition at 1 µM (OASS-B [1]): 11 ± 6% | inhibition at 1000 µM (OASS-B [1]): 82 ± 1%

O=C(O)c1ccn[nH]1 [Compound 4c, 1H-pyrazole-5-carboxylic acid]
inhibition at 1 µM (OASS-A; [5]): 9 ± 7% | % inhibition OASS-A (OASS-A; compound 1 mM): 94 ± 1% | inhibition at 1000 µM (OASS-A; [6]): > 90% | Kd (StOASS-A): 122 ± 5 µM | LE (OASS-A) (StOASS-A): 0.67 kcal/mol/HA | Kd (OASS-B [2]): 272 ± 10 µM | LE (OASS-B) (OASS-B [2]): 0.61 kcal/mol/HA | % inhibition OASS-B (OASS-B [1]): ns | inhibition at 1000 µM (OASS-B [1]): 82 ± 1%

O=C(O)c1ccn(-c2ccc(Br)cc2)n1 [Compound 5e, 1–(4-bromophenyl)-1H-pyrazole-3-carboxylic acid]
% inhibition OASS-A (OASS-A; [5]): ns | inhibition at 1000 µM (OASS-A; [6]): 62 ± 1% | % inhibition OASS-B (OASS-B [1]): ns | inhibition at 1000 µM (OASS-B [1]): 35 ± 2%

O=C(O)c1nccs1 [Compound 16, thiazole-2-carboxylic acid]
Kd (StOASS-A): 52 ± 6 µM | LE (OASS-A) (StOASS-A): 0.74 kcal/mol/HA | Kd (OASS-B [2]): 338 ± 14 µM | LE (OASS-B) (OASS-B [2]): 0.60 kcal/mol/HA

O=C(O)c1ccn(C2CCCCC2)n1 [Compound 5h, 1-cyclohexyl-1H-pyrazole-3-carboxylic acid]
% inhibition OASS-A (OASS-A; [5]): ns | inhibition at 1000 µM (OASS-A; [6]): 79 ± 1% | % inhibition OASS-B (OASS-B [1]): ns | inhibition at 1000 µM (OASS-B [1]): 43 ± 3%

CC(C)(C)c1ccc(-n2nccc2C(=O)O)cc1 [Compound 4f, 1–(4-(tert-butyl)phenyl)-1H-pyrazole-5-carboxylic acid]
% inhibition OASS-A (OASS-A; [5]): ns | inhibition at 1000 µM (OASS-A; [6]): 47 ± 1% | % inhibition OASS-B (OASS-B [1]): ns | inhibition at 1000 µM (OASS-B [1]): 52 ± 5%

C/C=C/[C@@H]1C[C@H]1C(=O)O (racemic) [Compound 1, (±)-trans-2-[(1E)-prop-1-en-1-yl]cyclopropanecarboxylic acid]
Kd (OASS; read-out: Kd): 1460 nM

O=C(O)c1ccnn1-c1ccc(Br)cc1 [Compound 4e, 1–(4-bromophenyl)-1H-pyrazole-5-carboxylic acid]
% inhibition OASS-A (OASS-A; [5]): ns | % inhibition OASS-A (OASS-A; compound 1 mM): 84 ± 1% | inhibition at 1000 µM (OASS-A; [7]): > 80% | % inhibition OASS-B (OASS-B [1]): ns | inhibition at 1000 µM (OASS-B [1]): 58 ± 2%

O=C(O)c1ccnn1-c1ccc(Cl)cc1 [Compound 4d, 1–(4-chlorophenyl)-1H-pyrazole-5-carboxylic acid]
% inhibition OASS-A (OASS-A; [5]): ns | inhibition at 1000 µM (OASS-A; [6]): 60 ± 2% | inhibition at 1 µM (OASS-B [1]): 9 ± 6% | inhibition at 1000 µM (OASS-B [1]): 56 ± 1%

Cc1ccc(C[C@@]2(C(=O)O)C[C@H]2c2ccccc2)cc1 [Compound 2, (1S,2S)-1–(4-methylbenzyl)-2-phenylcyclopropanecarboxylic acid]
LE (OASS-A) (StOASS-A): 0.52 kcal/mol/HA | LE (OASS-B) (OASS-B [2]): 0.50 kcal/mol/HA | permeability through the cell envelope [3]: poor permeability | Kd (OASS-B [4]): 49 nM | Kd (OASS; read-out: Kd-OASS): 28 nM | activity when tested against Salmonella in vitro (Salmonella): did not show any activity

Cc1ccc(-n2nccc2C(=O)O)cc1 [Compound 4a, 1-(p-tolyl)-1H-pyrazole-5-carboxylic acid]
% inhibition OASS-A (OASS-A; [5]): ns^b | % inhibition OASS-A (OASS-A; compound 1 mM): 45 ± 3% | inhibition at 1000 µM (OASS-A; [7]): 50% | % inhibition OASS-B (OASS-B [1]): ns | inhibition at 1000 µM (OASS-B [1]): 65 ± 2%

O=C(O)c1ccn(-c2ccc(Cl)cc2)n1 [Compound 5d, 1–(4-chlorophenyl)-1H-pyrazole-3-carboxylic acid]
% inhibition OASS-A (OASS-A; [5]): ns | inhibition at 1000 µM (OASS-A; [6]): 63 ± 1% | inhibition at 1 µM (OASS-B [1]): 15 ± 2% | inhibition at 1000 µM (OASS-B [1]): 63 ± 1%
